How the values were obtained:
[1] = tested on: HIV-1RF-infected H9 cells; test: HIV-induced syncytium formation: fusion of intact H9 cells with HIV-1RF-infected H9 cells; assay type: cell-based; settings: H9 + HIV-1RF-infected H9 cells, 6 to 15 hours at 37° C., FIG. 1
Text: For all the curves, the effect of ajoene enantiomers and enantiomer mixtures on the fusion of cultured, intact H9 cells with HIV-1RF-infected H9 cells is disclosed. The vertical graph axis expresses the maximum amount of syncytia formed in the absence of the compounds (100 percent), while the points on the curves represent percentages of such an amount of syncytia formed in the presence of varying concentrations of the compounds and compound mixtures (micromoles per liter).
Another such method is based on the inhibition of HIV-mediated syncytium formation, a phenomenon known to depend on the functional activity of integrins. The purified Z enantiomers, racemic E-ajoene, and the original 3:1 mixture of racemic Z- and E-ajoenes were taken up in DMSO at a concentration of 10 mg/mL. Dilutions were made in RPMI 1640 medium containing 10% fetal calf serum and 10 mM HEPES (cRPMW). HIV-1RF-infected H9 cells and uninfected H9 cells were washed with cRPMI and resuspended in cRPMI at a density of 4×10^6 per mL. Uninfected cells (50 μL) were mixed with serial dilutions of the compounds (100 μL) and incubated at 37° C. for30 minutes before adding and mixing 50 μL of infected H9 cells. The plates were incubated at 37° C. for 6 to 15 hours before scoring syncytium formation.
The purified enantiomers were taken up in DMSO at a concentration of 10 mg/mL. Dilutions were made in RPMI 1640 medium containing 10% fetal calf serum and 10 mM HEPES (cRPMI). H9 cells (ATCC, Rockville, Md.) infected with HIV-1RF, (NIH AIDS Repository, Rockville, Md.) and uninfected H9 cells were washed with cRPMI and resuspended in cRPMI at a density of 4×10^6 per mL. Uninfected cells (50 μL) were mixed with serial dilutions of the compounds (100 μL) and incubated at 37° C. for 30 min before adding and mixing 50 μL of infected H9 cells. The plates were incubated at 37° C. for 6 to 15 hours before scoring syncytium formation.

[2] = biological target: T1, VLA-4 (Homo sapiens, UniProt P05556+P13612); test: Inhibition of VLA-4-mediated adhesion of enzyme-labeled PM1 cells to VCAM-1-coated substrata; assay type: cell-based; settings: PM1 cells on immobilized VCAM-1; listed as Z(−) enantiomer of ajoene
T1 construct: host or cells: PM1 cells (VLA-4); COS7 cells secrete the VCAM/IgG ligand
Description: In addition, the invention discloses methods whereby the integrin-modulating activity of ajoene enantiomers may be assessed. One such method involves VLA-4-mediated adhesion of enzyme-labeled PM1 cells to VCAM-1-coated artificial substrata. Specifically, the cells were exposed to isolated ajoene enantiomers (or the vehicle thereof) and allowed to adhere to immobilized VCAM-1. Thereafter, the adherent cells were lyzed and, following addition of the substrate of the enzyme and incubation, the activity of the enzyme was measured spectrophotometrically. The value of this parameter, characterizing the number of the adherent cells, is inversely proportional to the integrin-modulating activity of the compound.
Integrin-modulating activity of the enantiomers was compared in a well-defined system of inhibition of VLA-4-mediated adhesion of enzyme-labeled PM1 cells (NIH AIDS Repository, Rockville, Md.) to VCAM-1-coated artificial substrata. In this experiment, enzyme-linked immunosorbent assay (ELISA) plates were coated with rabbit anti-human IgG (Fc-specific). Aliquots of 100 μL of supernatant from VCAM/IgG-secreting COS7 cells were added to each well, the plates incubated at 37° C. for 1 hour, and the wells washed with phosphate-buffered saline (PBS). […] The reaction was stopped with 0.5 M H2SO4, andthe optical density of the wells, read at 450 nm. […]

T1 sequence (P13612 34-1032): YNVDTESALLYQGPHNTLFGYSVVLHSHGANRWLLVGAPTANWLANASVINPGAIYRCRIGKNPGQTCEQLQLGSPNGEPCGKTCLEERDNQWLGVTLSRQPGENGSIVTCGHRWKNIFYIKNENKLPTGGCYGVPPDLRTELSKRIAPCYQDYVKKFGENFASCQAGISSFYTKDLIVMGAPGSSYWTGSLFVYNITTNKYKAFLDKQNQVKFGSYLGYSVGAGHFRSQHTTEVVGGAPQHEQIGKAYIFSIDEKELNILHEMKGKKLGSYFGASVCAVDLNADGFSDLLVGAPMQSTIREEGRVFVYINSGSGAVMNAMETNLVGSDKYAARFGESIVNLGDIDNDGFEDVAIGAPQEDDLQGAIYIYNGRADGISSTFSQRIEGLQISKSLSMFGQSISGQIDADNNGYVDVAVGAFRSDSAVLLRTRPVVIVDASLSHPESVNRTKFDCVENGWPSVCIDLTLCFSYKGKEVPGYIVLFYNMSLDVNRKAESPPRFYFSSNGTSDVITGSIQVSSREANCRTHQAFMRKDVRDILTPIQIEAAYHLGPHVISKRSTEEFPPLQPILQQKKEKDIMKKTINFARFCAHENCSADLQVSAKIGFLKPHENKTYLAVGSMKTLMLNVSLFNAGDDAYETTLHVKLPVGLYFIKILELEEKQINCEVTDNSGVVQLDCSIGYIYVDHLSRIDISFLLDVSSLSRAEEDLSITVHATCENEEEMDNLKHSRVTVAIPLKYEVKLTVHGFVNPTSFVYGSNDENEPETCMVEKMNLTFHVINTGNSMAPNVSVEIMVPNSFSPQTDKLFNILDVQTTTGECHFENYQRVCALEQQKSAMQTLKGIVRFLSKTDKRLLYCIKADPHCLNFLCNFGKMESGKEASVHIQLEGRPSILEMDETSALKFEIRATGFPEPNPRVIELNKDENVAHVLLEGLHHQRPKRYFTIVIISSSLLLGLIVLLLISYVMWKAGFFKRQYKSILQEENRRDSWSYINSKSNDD
T1 sequence (P05556 21-798): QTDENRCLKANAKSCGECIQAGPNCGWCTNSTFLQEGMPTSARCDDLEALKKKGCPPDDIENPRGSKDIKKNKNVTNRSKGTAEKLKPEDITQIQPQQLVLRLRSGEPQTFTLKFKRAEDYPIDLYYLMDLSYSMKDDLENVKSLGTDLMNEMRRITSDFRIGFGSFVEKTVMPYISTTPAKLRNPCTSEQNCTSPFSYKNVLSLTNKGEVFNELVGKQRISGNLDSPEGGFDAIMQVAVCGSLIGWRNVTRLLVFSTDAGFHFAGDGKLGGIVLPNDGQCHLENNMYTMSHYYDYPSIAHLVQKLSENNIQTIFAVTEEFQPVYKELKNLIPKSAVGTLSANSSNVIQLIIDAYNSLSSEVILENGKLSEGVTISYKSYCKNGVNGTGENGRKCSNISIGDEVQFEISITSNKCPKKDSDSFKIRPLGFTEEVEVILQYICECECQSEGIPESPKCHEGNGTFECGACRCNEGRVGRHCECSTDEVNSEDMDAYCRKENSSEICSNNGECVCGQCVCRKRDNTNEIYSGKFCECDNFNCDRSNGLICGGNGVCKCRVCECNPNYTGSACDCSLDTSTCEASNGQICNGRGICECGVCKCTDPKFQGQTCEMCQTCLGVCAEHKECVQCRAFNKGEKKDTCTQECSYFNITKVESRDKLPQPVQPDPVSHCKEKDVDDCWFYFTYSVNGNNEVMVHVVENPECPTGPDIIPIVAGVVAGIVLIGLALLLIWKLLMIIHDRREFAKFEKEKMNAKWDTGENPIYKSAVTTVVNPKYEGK

| Compound | IC100 of syncytium formation [1] [micromoles per liter] | IC100 of syncytium formation ([1]; listed as Z(+)) [micromoles per liter] | adhesion-inhibiting activity relative to the other enantiomers / original 3:1 mixture [2] [fold] | IC100 of syncytium formation ([1]; listed as Z(−) enantiomer) [micromoles per liter] |
| --- | --- | --- | --- | --- |
| C=CCSS/C=C/C[S+]([O-])CC=C (racemic) [racemic E-ajoene, reference compound] | 50 | – | – | – |
| C=CCSSC=CC[S+]([O-])CC=C (racemic) [unseparated 3:1 mixture of racemic Z- and E-ajoenes, 4,5,9-trithiadodeca-1,6,11-triene-9-oxide, reference compound] | 50 | – | – | – |
| C=CCSS/C=C\C[S+]([O-])CC=C (stereo not drawn) [Z(+)-ajoene, Z(+)-4,5,9-trithiadodeca-1,6,11-triene-9-oxide] | – | 50 | – | – |
| C=CCSS/C=C\C[S+]([O-])CC=C (stereo not drawn) [Z(−)-ajoene, Z(−)-4,5,9-trithiadodeca-1,6,11-triene-9-oxide] | 12.5 | – | 4 | 12.5 |

Source: US7321002B2, “Chiral integrin modulators and methods of use thereof” (Billings Pharmaceuticals, Inc., priority 2000, dated 2008)
